The source of these data is patent US6680289B1, “Methods, compositions, and articles for odor control” (The Proctor & Gamble Company, priority 1999, dated 2004).

Data set [1] is described as follows: Interaction of perfume components with cyclodextrin (CD). The data set is classed as physicochemical. The settings on record: perfume component with cyclodextrin. The source says: The following table illustrates the molecular weight property of some of the preferred perfume versus non-preferred perfume components.
For data set [2] the following is noted: cited from earlier work.

Molecules are shown by their SMILES.

Turning to `CCC(C)(O)CCCC(C)C` (centres unmarked) [Tetrahydrolinalol], the CD interaction result in data set [1] is listed as “significant”.
Consider `ClC=CC[N+]12CN3CN(CN(C3)C1)C2.[Cl-]` [Dowicil 200, 1-(3-Chlorallyl) -3,5,7-triaza-1-azoniaadamantane chloride], for which the “solubility in water” value in data set [2] is “freely soluble in water”.
